Measurements from patent US11358987B2, “Albicidin derivatives, their use and synthesis” (priority 2018, dated 2022).
Values after ≈ are worked out from the molar mass of the structure shown. Like-named read-outs stand apart in the source and are kept apart here.

Assays:
Test in all cases: Microdilution assay, MIC determination (CLSI M07-A9)
Format in all cases: cell-based
M. luteus DSM1790 = settings: Micrococcus luteus
Procedure: (§1) E. coli DSM 1116; E. coli BW25113; S. typhimurium TA100; Bacillus subtilis DSM10; M. phlei DSM750 and Micrococcus luteus DSM1790
(§2) The tests were performed using the micro dilution method.
(§3) The determination of MIC values was performed according to the ninth edition of the Approved Standard M07-A9 (CLSI. Methods for Dilution Antimicrobial Susceptibility Tests for Bacteria That Grow Aerobically; Approved Standard-Ninth Edition. CLSI document M07-A9. Wayne, Pa.: Clinical and Laboratory Standards Institute; 2012.)
(§4) The test was carried out for the six different bacterial strains 20 μL of cryo stock of each strain were inoculated in 20 mL of LB media (Lysogeny broth: 10 g/L peptone, 5 g/L yeast extract, 5 g/L NaCl) followed by incubation over night at 37° C., 200 rpm. The test inoculum was adjusted by the 0.5 McFarland Standard (OD625 from 0.08 to 0.1). Within 15 min of preparation, the adjusted inoculum suspension was diluted in MHBII media (BBL™ Mueller-Hinton Broth II, Becton, Dickinson and Company, New Jersey/USA) so that each well contained approximately 5×10^5 CFU/mL in a final volume of 100 μL. 95 μL of the inoculum were applied per well and 5 μL of the (diluted) antibiotic substance were added.
(§5) Previously the dry antibiotic compounds were dissolved in DMSO (100%) with a concentration of 2560 μg/mL and the resulting stock solutions were further diluted in DMSO (100%). 5 μL of each antibiotic dilution were applied to the microdilution tray to reach final concentrations of 64 μg/mL to 0.008 μg/mL. One row of each well plate was left as a growth control without antibiotic substances and another row of the microdilution tray was used as sterility control (only MHB II-media). The antimicrobial effect of the solvent (DMSO) was tested by adding 5 μL DMSO to several wells without antibiotics.
(§6) Purity check and cell titer control were performed according to International Standard M07-A9 on Mueller-Hinton II Agar (Mueller Hinton II Broth, 15 g/L agar-agar).
(§7) Both microdilution trays and agar plates were incubated at 37° C. for 20 h and subsequently analyzed visually.

E. coli DSM1116 = settings: Escherichia coli
Procedure: as §1, §2, §3, §4, §5, §6, §7

B. subtilis DSM10 = settings: Bacillus subtilis
Procedure: as §1, §2, §3, §4, §5, §6, §7

M. phlei DSM750 = settings: Mycolicibacterium phlei
Procedure: as §1, §2, §3, §4, §5, §6, §7

E. coli BW25113 = settings: Escherichia coli
Procedure: as §1, §2, §3, §4, §5, §6, §7

S. typhimurium TA100 = settings: Salmonella enterica, 20 h
Procedure: as §1, §2, §3, §4, §5, §6, §7

[1] = M. luteus DSM1790, 37° C., 20 h, MHBII media, read-out: MIC
[2] = E. coli DSM1116, 37° C., 20 h, MHBII media, read-out: MIC
[3] = B. subtilis DSM10, 37° C., 20 h, MHBII media, read-out: MIC
[4] = M. phlei DSM750, 37° C., 20 h, MHBII media, read-out: MIC
[5] = E. coli BW25113, 37° C., 20 h, MHBII media, read-out: MIC
[6] = S. typhimurium TA100, 37° C., MHBII media, read-out: MIC

Structure (SMILES) | MIC (M. luteus DSM1790; DSM1790, 20 h) | MIC (E. coli DSM1116; DSM1116, 20 h) | MIC (B. subtilis DSM10; DSM10, 20 h) | MIC (M. phlei DSM750; DSM750, 20 h) | MIC (E. coli BW25113; BW25113, 20 h) | MIC (S. typhimurium TA100; TYPHIMURIUM) | MIC (M. luteus DSM1790; [1]) | MIC (E. coli DSM1116; [2]) | MIC (B. subtilis DSM10; [3]) | MIC (M. phlei DSM750; [4]) | MIC (E. coli BW25113; [5]) | MIC (S. typhimurium TA100; [6])
COc1c(NC(=O)c2ccc(NC(=O)c3ccc(NC(=O)[C@H](CC#N)NC(=O)c4ccc(NC(=O)/C(C)=C/c5ccc(O)cc5)cc4)cc3)c(OC)c2O)ccc(C(=O)O)c1O [Albicidin] | 1000 µg/mL (≈ 1190 µM) | 63 µg/mL (≈ 74.7 µM) | 250 µg/mL (≈ 297 µM) | 2000 µg/mL (≈ 2370 µM) | 63 µg/mL (≈ 74.7 µM) | 63 µg/mL (≈ 74.7 µM) |  |  |  |  |  | 
COc1c(NC(=O)c2ccc(NC(=O)c3ccc(NC(=O)C(Cc4cnn[nH]4)NC(=O)c4ccc(NC(=O)/C(C)=C/c5ccc(O)cc5)cn4)cc3)c(OC)c2O)ccc(C(=O)O)c1O (stereo not drawn) [Compound 1] | 500 µg/mL (≈ 564 µM) | 16 µg/mL (≈ 18.1 µM) | 250 µg/mL (≈ 282 µM) | 2000 µg/mL (≈ 2260 µM) | 16 µg/mL (≈ 18.1 µM) | 16 µg/mL (≈ 18.1 µM) |  |  |  |  |  | 
COc1c(NC(=O)c2ccc(NC(=O)c3ccc(NC(=O)C(Cc4cnn[nH]4)NC(=O)c4ccc(NC(=O)/C(C)=C/c5ccc(O)cc5)nc4)cc3)c(OC)c2O)ccc(C(=O)O)c1O (stereo not drawn) [Compound 2] |  |  |  |  |  |  | 2000 µg/mL (≈ 2260 µM) | 31 µg/mL (≈ 35 µM) | 500 µg/mL (≈ 564 µM) | 2000 µg/mL (≈ 2260 µM) | 16 µg/mL (≈ 18.1 µM) | 16 µg/mL (≈ 18.1 µM)
COc1c(NC(=O)c2ccc(NC(=O)c3ccc(NC(=O)C(Cc4cnn[nH]4)NC(=O)c4ccc(NC(=O)/C(C)=C/c5ccc(O)cc5)nn4)cc3)c(OC)c2O)ccc(C(=O)O)c1O (stereo not drawn) [Compound 3] |  |  |  |  |  |  | 4000 µg/mL (≈ 4510 µM) | 31 µg/mL (≈ 35 µM) | 1000 µg/mL (≈ 1130 µM) | 2000 µg/mL (≈ 2260 µM) | 31 µg/mL (≈ 35 µM) | 31 µg/mL (≈ 35 µM)
COc1c(NC(=O)c2ccc(NC(=O)c3ccc(NC(=O)C(Cc4cnn[nH]4)NC(=O)c4ccc(NC(=O)/C(C)=C/c5ccc(O)cc5)cn4)cc3O)c(OC)c2O)ccc(C(=O)O)c1O (stereo not drawn) [Compound 4] |  |  |  |  |  |  | 2000 µg/mL (≈ 2220 µM) | 31 µg/mL (≈ 34.4 µM) | 1000 µg/mL (≈ 1110 µM) | 2000 µg/mL (≈ 2220 µM) | 31 µg/mL (≈ 34.4 µM) | 16 µg/mL (≈ 17.7 µM)
COc1c(NC(=O)c2ccc(NC(=O)c3ccc(NC(=O)C(Cc4cnn[nH]4)NC(=O)c4ccc(NC(=O)/C(C)=C/c5ccc(F)cc5)cn4)cc3O)c(OC)c2O)ccc(C(=O)O)c1O (stereo not drawn) [Compound 5] |  |  |  |  |  |  | 2000 µg/mL (≈ 2210 µM) | 16 µg/mL (≈ 17.7 µM) | 250 µg/mL (≈ 277 µM) | 2000 µg/mL (≈ 2210 µM) | 63 µg/mL (≈ 69.7 µM) | 16 µg/mL (≈ 17.7 µM)
COc1nc(C(=O)Nc2ccc(C(=O)O)c(O)c2OC)ccc1NC(=O)c1ccc(NC(=O)C(Cc2cnn[nH]2)NC(=O)c2ccc(NC(=O)/C(C)=C/c3ccc(O)cc3)cc2)cc1 (stereo not drawn) [Compound 6] |  |  |  |  |  |  | 125 µg/mL (≈ 144 µM) | 16 µg/mL (≈ 18.4 µM) | 250 µg/mL (≈ 287 µM) | 1000 µg/mL (≈ 1150 µM) | 16 µg/mL (≈ 18.4 µM) | 31 µg/mL (≈ 35.6 µM)
COc1nc(C(=O)O)ccc1NC(=O)c1ccc(NC(=O)c2ccc(NC(=O)C(Cc3cnn[nH]3)NC(=O)c3ccc(NC(=O)/C(C)=C/c4ccc(O)cc4)cc3)cc2)c(OC)c1O (stereo not drawn) [Compound 7] |  |  |  |  |  |  | > 8000 µg/mL | 250 µg/mL (≈ 287 µM) | 2000 µg/mL (≈ 2300 µM) | 8000 µg/mL (≈ 9200 µM) | 500 µg/mL (≈ 575 µM) | 250 µg/mL (≈ 287 µM)
COc1c(NC(=O)c2ccc(NC(=O)C(Cc3cnn[nH]3)NC(=O)c3ccc(NC(=O)/C(C)=C/c4ccc(O)cc4)cn3)cc2)ccc(C(=O)Nc2ccc(C(=O)O)c(O)c2OCCO)c1O (stereo not drawn) [Compound 8] |  |  |  |  |  |  | 2000 µg/mL (≈ 2180 µM) | 63 µg/mL (≈ 68.8 µM) | 2000 µg/mL (≈ 2180 µM) | 2000 µg/mL (≈ 2180 µM) | 125 µg/mL (≈ 136 µM) | 31 µg/mL (≈ 33.8 µM)
COc1c(NC(=O)c2ccc(NC(=O)c3ccc(NC(=O)C(Cc4cnn[nH]4)NC(=O)c4ccc(NC(=O)c5ccc(F)cc5)cn4)cc3O)c(OC)c2O)ccc(C(=O)O)c1O (stereo not drawn) [Compound 9] |  |  |  |  |  |  | > 8000 µg/mL | 63 µg/mL (≈ 72.9 µM) | 1000 µg/mL (≈ 1160 µM) | 1000 µg/mL (≈ 1160 µM) | 125 µg/mL (≈ 145 µM) | 310 µg/mL (≈ 359 µM)
COc1c(NC(=O)c2ccc(NC(=O)c3ccc(NC(=O)C(Cc4cnn[nH]4)NC(=O)c4ccc(NC(=O)/C(C)=C/c5ccc(O)cc5)cc4)cn3)c(OC)c2O)ccc(C(=O)O)c1O (stereo not drawn) [Compound 10] |  |  |  |  |  |  | 31 µg/mL (≈ 35 µM) | ≤ 16 µg/mL | 63 µg/mL (≈ 71.1 µM) | 250 µg/mL (≈ 282 µM) | ≤ 16 µg/mL | ≤ 16 µg/mL
COc1c(NC(=O)c2ccc(NC(=O)c3ccc(NC(=O)C(Cc4cnn[nH]4)NC(=O)c4ccc(NC(=O)/C(C)=C/c5ccc(O)cc5)cc4)nc3)c(OC)c2O)ccc(C(=O)O)c1O (stereo not drawn) [Compound 11] |  |  |  |  |  |  | 4000 µg/mL (≈ 4520 µM) | 1000 µg/mL (≈ 1130 µM) | 500 µg/mL (≈ 564 µM) | 8000 µg/mL (≈ 9030 µM) | 500 µg/mL (≈ 564 µM) | 4000 µg/mL (≈ 4520 µM)
COc1c(NC(=O)c2ccc(NC(=O)c3ccc(NC(=O)C(Cc4cnn[nH]4)NC(=O)c4ccc(NC(=O)c5ccc(C#N)cc5)cc4)cn3)c(OC)c2O)ccc(C(=O)O)c1O (stereo not drawn) [Compound 12] |  |  |  |  |  |  | 125 µg/mL (≈ 146 µM) | 31 µg/mL (≈ 36.3 µM) | 250 µg/mL (≈ 292 µM) | 8000 µg/mL (≈ 9360 µM) | 31 µg/mL (≈ 36.3 µM) | ≤ 16 µg/mL
COc1c(NC(=O)c2ccc(NC(=O)c3ccc(NC(=O)C(Cc4cnn[nH]4)NC(=O)c4ccc(NC(=O)c5ccc(C#N)cc5)cn4)cn3)c(OC)c2O)ccc(C(=O)O)c1O (stereo not drawn) [Compound 13] |  |  |  |  |  |  | 63 µg/mL (≈ 73.6 µM) | 31 µg/mL (≈ 36.2 µM) | 125 µg/mL (≈ 146 µM) | 1000 µg/mL (≈ 1170 µM) | 31 µg/mL (≈ 36.2 µM) | 4000 µg/mL (≈ 4670 µM)
COc1c(NC(=O)c2ccc(NC(=O)c3ccc(NC(=O)C(Cc4cnn[nH]4)NC(=O)c4ccc(NC(=O)/C(C)=C/c5ccc(O)cc5)cn4)cn3)c(OC)c2O)ccc(C(=O)O)c1O (stereo not drawn) [Compound 14] |  |  |  |  |  |  | 125 µg/mL (≈ 141 µM) | ≤ 16 µg/mL | 125 µg/mL (≈ 141 µM) | 4000 µg/mL (≈ 4510 µM) | 63 µg/mL (≈ 71 µM) | ≤ 16 µg/mL
C/C(=C\c1ccc(O)cc1)C(=O)Nc1ccc(C(=O)N[C@@H](Cc2c[nH]nn2)C(=O)Nc2ccc(C(=O)Nc3ccc(C(=O)Nc4ccc(C(=O)O)cc4)c(O)c3OC(C)C)nc2)cc1 [Compound 15] |  |  |  |  |  |  | 63 µg/mL (≈ 72.6 µM) | 31 µg/mL (≈ 35.7 µM) | ≤ 16 µg/mL | 250 µg/mL (≈ 288 µM) | 31 µg/mL (≈ 35.7 µM) | ≤ 16 µg/mL
C/C(=C\c1ccc(O)cc1)C(=O)Nc1ccc(C(=O)N[C@@H](Cc2c[nH]nn2)C(=O)Nc2ccc(C(=O)Nc3ccc(C(=O)Nc4ccc(C(=O)O)cc4)c(O)c3OC(C)C)nc2)nc1 [Compound 16] |  |  |  |  |  |  | ≤ 16 µg/mL | 31 µg/mL (≈ 35.7 µM) | ≤ 16 µg/mL | 31 µg/mL (≈ 35.7 µM) | ≤ 16 µg/mL | ≤ 16 µg/mL
CC(C)Oc1c(NC(=O)c2ccc(NC(=O)[C@H](Cc3c[nH]nn3)NC(=O)c3ccc(NC(=O)c4ccc(C#N)cc4)cc3)cn2)ccc(C(=O)Nc2ccc(C(=O)O)cc2)c1O [Compound 17] |  |  |  |  |  |  | 125 µg/mL (≈ 149 µM) | 31 µg/mL (≈ 37 µM) | 31 µg/mL (≈ 37 µM) | 500 µg/mL (≈ 597 µM) | 31 µg/mL (≈ 37 µM) | ≤ 16 µg/mL
